Test: Solubility and compatibility in seawater (SW) and formation water (FW)
Type: physicochemical
Conditions: seawater and formation water
Description: Synthetic seawater (SW) and formation water (FW) were prepared using NaCl, Na2SO4, NaHCO3, CaCl2, and MgCl2. All the salts were obtained from Sigma-Aldrich, USA.
Solubility and compatibility of the surfactant in the reservoir and injection brine are the primary considerations for further evaluation of the unsaturated surfactant for EOR application. If the surfactant is not soluble in the seawater and formation brine, it can be rejected at the initial stage. […] After the compatibility test with SW and FW, the short-term thermal stability of the synthesized unsaturated surfactant was evaluated using TGA analysis. […] Only 3% weight loss was observed up to 200° C., which was mainly associated with solvent and water evaporation. […] TGA results helped to identify and eliminate the surfactants that had lower decomposition temperatures. However, for real field applications, long-term thermal stability of the surfactant must be considered, as the surfactant residence time in the reservoir could vary from a few days to a few months.

Structure (SMILES): CCCCCCCCCCCCCCCCCC(=O)NCCC[N+](C)(C)CCCS(=O)(=O)[O-] [3-(N-stearamidopropyl-N,N-dimethylammonium)propanesulfonate, reference compound]
- solubility in SW and FW: poor solubility
